Test [1] concerns MSNs from the NAcb shell. It counts as cell-based, Sprague-Dawley rats. To be noted: for effect on DA-mediated changes in spike firing / effect on spike firing, intracellular perfusion alone: 1 μM, intracellular perfusion; for effect on increase in spike firing elicited by D1/D2 co-activation: dialysis of neurons; for effect on activation of spike firing by forskolin: peptide in intracellular solution.

Test [2] has as its system total potassium currents, comprised of IAs, delayed-rectifier, and non-inactivating potassium currents. Nature of the test: voltage-clamp measurement of total evoked potassium current. It counts as cell-based, Sprague-Dawley rats.
The test system of test [3] is MSNs from the NAcb shell.
Method: Patch-clamping was performed using visualized infrared-DIC with 2.5 to 3.5 MΩ electrodes. Current pulses were applied using Clampex 8.0 and an Axo-1D patch amplifier in current-clamp mode (Axon Instruments, Foster City, Calif.). Upon breaking into neurons, the resting membrane potentials were between −95 and −80 mV. […] Series resistance correction was 15-20 MΩ. To record EPSPs, a bipolar stimulating electrode was placed ˜100 μM lateral to the recording electrode. Afferents were stimulated with 10 pulses at 20 Hz (20 μs) every 30 seconds using a Master 8 (AMPI, Jerusalem, Israel), and EPSPs were recorded using Clampex in current-clamp mode.
We also performed a within-cell comparison of the spike firing change and the change in input resistance or Vm-rest.

“Also recorded” adds a separate entry of the source. Read-outs that look alike come from different tables or passages of the source.

`Nc1ccncc1` [4-AP, 4-aminopyridine]: the “effect on DA-mediated enhancement of spike firing (occlusion)” value in the test with MSNs from the NAcb shell [1] (60 μM pre-exposure) is “significantly occluded the effects of DA”. In the test on MSNs from the NAcb shell [1] (5-60 μM), the “effect on spike firing” value is recorded as “increased spike firing in a dose-dependent manner; also recorded: significantly enhanced spike firing”. For the same molecule, the “change in spike firing with DA after pre-exposure to IAs inhibitor” value with MSNs from the NAcb shell [1] (inhibitor 10 μM) is 11.4+/−5.1%. For the same molecule, the “effect on potassium current evoked by a 300 ms pulse to 0 mV” value in test [2] (10 μM) was “small but significant inhibition”.

`NCCc1ccc(O)c(O)c1` [DA, Dopamine]: in the test with MSNs from the NAcb shell [3], the “effect on input resistance (R-input)” value was “no significant changes” and the “effect on resting membrane potential (Vm-rest)” value is “no significant changes”. Besides, the “effect on spike firing” value in the test on MSNs from the NAcb shell [1] is “significantly and reversibly elevated spike firing”. The “enhancement in spike firing by DA with calcium channels blocked” value with MSNs from the NAcb shell [1] (pre-incubation with ω-conotoxin GVIA 500 nM and ω-agatoxin IVA 250 nM, continuous nifedipine 30 μM) is 24.0+/−5.0%. Also, in test [2] (75 μM), the “effect on potassium current evoked by a 300 ms pulse to 0 mV” value is given as “small but significant inhibition”.

On to `CCCN1CCc2cccc3c2[C@H]1Cc1ccc(O)c(O)c1-3` [NPA, propylnorapomorphine], for which the “effect on spike firing, agonist alone” value with MSNs from the NAcb shell [1] (3 μM, alone) was “not altered”.

Take `Nc1ncnc2c1ncn2[C@@H]1O[C@@H]2CO[P@@](O)(=S)O[C@H]2[C@H]1O` [Rp-cAMPS]: the “effect on spike firing when added during the DA response” value in the test on MSNs from the NAcb shell [1] (100 μM, during plateau DA response) is listed as “significantly reduced spike firing to pre-DA levels”.

In the case of `CN1CCc2cc(Cl)c(O)cc2[C@@H](c2ccccc2)C1` [SCH 23990], the “change in spike firing with DA after pre-exposure to antagonist” value with MSNs from the NAcb shell [1] (antagonist 1 μM, pre-exposure) is on record as −0.5+/−4.6%.

As for `Oc1cc2c(c(Cl)c1O)CCNCC2c1ccccc1` (stereo not shown) [SKF 81297], in the test with MSNs from the NAcb shell [1] (10 μM, intracellular Gβγ subunits 20 nM), the “effect on spike firing in cells perfused with Gβγ” value is recorded as “significantly enhanced spike firing”. Besides, in the test on MSNs from the NAcb shell [1] (1-10 μM, alone), the “effect on spike firing, agonist alone” value is on record as “not altered”. For the same molecule, the “change in spike firing in neurons perfused with Gβγ vehicle plus maltose binding protein” value in the test on MSNs from the NAcb shell [1] (control perfusion without Gβγ) is recorded as −2.5+/−2.5%.

Take `CC(N)Cc1ccccc1` (stereo not shown) [amphetamine]: in the test with MSNs from the NAcb shell [1] (10 μM, bath application), the “change in spike firing” value is recorded as 18.5+/−5.4%.

Take `C=C[C@@]1(C)CC(=O)[C@@H]2[C@@]3(C)CCCC(C)(C)[C@@H]3[C@H](O)[C@H](OC(C)=O)[C@@]2(C)O1` [dideoxy-forskolin]: in the test with MSNs from the NAcb shell [1] (5 μM), the “effect on spike firing” value is reported as “had no effect”.

On to `CCc1cc(Cl)c(OC)c(C(=O)NC[C@@H]2CCCN2CC)c1O` [eticlopride], for which the “change in spike firing with DA after pre-exposure to antagonist” value in the test with MSNs from the NAcb shell [1] (antagonist 300 nM, pre-exposure) was 2.5+/−5.5%. The “effect on DA-mediated enhancement of spike firing” value with MSNs from the NAcb shell [1] (antagonist 3 μM, pre-exposure) was “prevented”.

For the molecule `N[C@@H](CCC(=O)O)C(=O)O` [glutamate], the “effect on spike rate after exposure to 60 μM 4-AP” value in the test with MSNs from the NAcb shell [1] (200 μM, after 60 μM 4-AP) is given as “further increased spike rate”.

As for `C=C1[C@@H](O)[C@@H]2O[C@]3(CC[C@H](/C=C/[C@@H](C)[C@@H]4CC(C)=C[C@@]5(O[C@H](C[C@@](C)(O)C(=O)O)CC[C@H]5O)O4)O3)CC[C@H]2O[C@@H]1[C@@H](O)C[C@H](C)[C@H]1O[C@@]2(CCCCO2)CC[C@H]1C` [okadaic acid], in the test on MSNs from the NAcb shell [1], the “effect on DA-mediated changes in spike firing” value is “occluded” and the “effect on spike firing, intracellular perfusion alone” value is “significantly enhanced”. The “firing change with okadaic acid in the presence of 4-AP” value in the test with MSNs from the NAcb shell [1] (˜13 minutes pre-exposure to 60 μM 4-AP) is recorded as 16+/−4.3%.

Regarding `CCCN1CCC[C@@H]2Cc3n[nH]cc3C[C@H]21` [quinpirole], in the test on MSNs from the NAcb shell [1], the “effect on spike firing in cells perfused with Gβγ” value is recorded as “not”; the “effect on spike firing, agonist alone” value is given as “not altered”; the “effect on spike rate, agonist alone” value is reported as “no effect”.

Take DALRIQMEERFMASNPSKVSYEPIT [SPβγ]: in the test with MSNs from the NAcb shell [1] (200 μM), the “effect on increase in spike firing elicited by D1/D2 co-activation” value is “prevented”. Moreover, the “effect on activation of spike firing by forskolin” value in the test with MSNs from the NAcb shell [1] is given as “not prevented”.

As for Norokadaone, in the test on MSNs from the NAcb shell [1], the “effect on DA-mediated changes in spike firing” value is on record as “did not prevent the effects of DA” and the “effect on spike firing, intracellular perfusion alone” value is “had no effect by itself”.

Take YEDSYEDISAYLLSKNNAIPR [FVIII]: the “effect on increase in spike firing elicited by D1/D2 co-activation” value in the test on MSNs from the NAcb shell [1] (200 μM) was “had no effect”. In the test with MSNs from the NAcb shell [1], the “effect on activation of spike firing by forskolin” value is on record as “not prevented”.

Turning to “α-dendrotoxin (QPRRKLCILHRNPGRCYDKIPAFYYNQKKKQCERFDWSGCGGNSNRFKTIEECRRTCIG; UniProt P00980 1-59, looked up) [α-dtx]”, the “effect on spike firing” value with MSNs from the NAcb shell [1] (0.5 μM) was “significantly enhanced spike firing”. Besides, in the test on MSNs from the NAcb shell [1] (0.5 μM pre-exposure), the “effect on DA-mediated enhancement of spike firing (occlusion)” value is “significantly occluded the effects of DA”.

The record behind these values is US20040253576A1 (priority 2003, published 2004).
